Species on record: Rattus norvegicus
Test: DrugMatrix - Regimen: Daily Repeat
Format: toxicity, organism-based, Sprague-Dawley
Parameters: regimen Daily Repeat, gender Male, age 6-8 weeks
Settings: in vivo, po, 0 mg/kg, route oral GAVAGE, dose level Control, vehicle 100 % WATER; for ABSOLUTE BASOPHIL / ABSOLUTE EOSINOPHIL / ABSOLUTE LYMPHOCYTE / ABSOLUTE MONOCYTE / ABSOLUTE SEGMENTED NEUTROPHIL / BASOPHIL / EOSINOPHIL / ERYTHROCYTE COUNT / HEMATOCRIT / HEMOGLOBIN / LEUKOCYTE COUNT / LYMPHOCYTE / MEAN CORPUSCULAR HEMOGLOBIN / MEAN CORPUSCULAR HEMOGLOBIN CONCENTRATION / MEAN CORPUSCULAR VOLUME / MONOCYTE / NEUTROPHIL / NUCLEATED RED BLOOD CELLS / PLATELET COUNT: tissue Blood
[1] = 72 h, tissue Plasma, time 3 day
[2] = 120 h, tissue Plasma, time 5 day

Structure (SMILES): CCC1(c2ccccc2)C(=O)NC(=O)NC1=O [PHENOBARBITAL]
- ABSOLUTE BASOPHIL (72 h, time 3 day): 0 CELLS/uL
- ABSOLUTE EOSINOPHIL (72 h, time 3 day): 32.5 CELLS/uL
- ABSOLUTE LYMPHOCYTE (72 h, time 3 day): 9305.83 CELLS/uL
- ABSOLUTE MONOCYTE (72 h, time 3 day): 43.83 CELLS/uL
- ABSOLUTE SEGMENTED NEUTROPHIL (72 h, time 3 day): 817.83 CELLS/uL
- BASOPHIL (72 h, time 3 day): 0%
- EOSINOPHIL (72 h, time 3 day): 0.33%
- ERYTHROCYTE COUNT (72 h, time 3 day): 5.38 x10E6/uL
- HEMATOCRIT (72 h, time 3 day): 33.63%
- HEMOGLOBIN (72 h, time 3 day): 13.17 G/DL
- LEUKOCYTE COUNT (72 h, time 3 day): 10.2 x10E3/uL
- LYMPHOCYTE (72 h, time 3 day): 91.17%
- MEAN CORPUSCULAR HEMOGLOBIN (72 h, time 3 day): 24.5 pg
- MEAN CORPUSCULAR HEMOGLOBIN CONCENTRATION (72 h, time 3 day): 39.13 G/DL
- MEAN CORPUSCULAR VOLUME (72 h, time 3 day): 62.53 fL
- MONOCYTE (72 h, time 3 day): 0.5%
- NEUTROPHIL (72 h, time 3 day): 8%
- NUCLEATED RED BLOOD CELLS (72 h, time 3 day): 0.17 /100WBC
- PLATELET COUNT (72 h, time 3 day): 858 x10E3/uL
- ALANINE AMINOTRANSFERASE [1]: 55.67 u/L
- ALBUMIN [1]: 4.07 G/DL
- ALKALINE PHOSPHATASE [1]: 337 u/L
- ASPARTATE AMINOTRANSFERASE [1]: 84 u/L
- BLOOD UREA NITROGEN [1]: 13.17 mg/dL
- CARBON DIOXIDE [1]: 34.17 mmol/L
- CHLORIDE [1]: 99.33 MEQ/L
- CHOLESTEROL [1]: 78.83 mg/dL
- CREATINE PHOSPHOKINASE [1]: 576.83 u/L
- CREATININE [1]: 0.17 mg/dL
- GLUCOSE [1]: 152.67 mg/dL
- LACTATE DEHYDROGENASE [1]: 147.83 u/L
- LIPASE [1]: 9.5 u/L
- PHOSPHORUS [1]: 10.78 mg/dL
- POTASSIUM [1]: 6.34 MEQ/L
- SODIUM [1]: 144.12 MEQ/L
- TOTAL BILIRUBIN [1]: 0.18 mg/dL
- TOTAL PROTEIN [1]: 6.08 G/DL
- URIC ACID [1]: 0.65 mg/dL
- ABSOLUTE BASOPHIL (120 h, time 5 day): 0 CELLS/uL
- ABSOLUTE EOSINOPHIL (120 h, time 5 day): 31.17 CELLS/uL
- ABSOLUTE LYMPHOCYTE (120 h, time 5 day): 7918.33 CELLS/uL
- ABSOLUTE MONOCYTE (120 h, time 5 day): 58.33 CELLS/uL
- ABSOLUTE SEGMENTED NEUTROPHIL (120 h, time 5 day): 725.5 CELLS/uL
- BASOPHIL (120 h, time 5 day): 0%
- EOSINOPHIL (120 h, time 5 day): 0.33%
- ERYTHROCYTE COUNT (120 h, time 5 day): 5.32 x10E6/uL
- HEMATOCRIT (120 h, time 5 day): 33.53%
- HEMOGLOBIN (120 h, time 5 day): 13.17 G/DL
- LEUKOCYTE COUNT (120 h, time 5 day): 8.73 x10E3/uL
- LYMPHOCYTE (120 h, time 5 day): 90.33%
- MEAN CORPUSCULAR HEMOGLOBIN (120 h, time 5 day): 24.82 pg
- MEAN CORPUSCULAR HEMOGLOBIN CONCENTRATION (120 h, time 5 day): 39.33 G/DL
- MEAN CORPUSCULAR VOLUME (120 h, time 5 day): 63.12 fL
- MONOCYTE (120 h, time 5 day): 0.67%
- NEUTROPHIL (120 h, time 5 day): 8.67%
- NUCLEATED RED BLOOD CELLS (120 h, time 5 day): 0 /100WBC
- PLATELET COUNT (120 h, time 5 day): 1144.83 x10E3/uL
- ALANINE AMINOTRANSFERASE [2]: 60.5 u/L
- ALBUMIN [2]: 3.97 G/DL
- ALKALINE PHOSPHATASE [2]: 343.17 u/L
- ASPARTATE AMINOTRANSFERASE [2]: 80.83 u/L
- BLOOD UREA NITROGEN [2]: 15 mg/dL
- CARBON DIOXIDE [2]: 31 mmol/L
- CHLORIDE [2]: 99.75 MEQ/L
- CHOLESTEROL [2]: 71.5 mg/dL
- CREATINE PHOSPHOKINASE [2]: 237.17 u/L
- CREATININE [2]: 0.17 mg/dL
- GLUCOSE [2]: 137 mg/dL
- LACTATE DEHYDROGENASE [2]: 146.17 u/L
- LIPASE [2]: 11.5 u/L
- PHOSPHORUS [2]: 10.13 mg/dL
